Data published in patent US8952024B2, “Herbicidal pyrimidone derivatives” (E I du Pont de Nemours and Company, priority 2009, dated 2015).

Experiments:
Type in all cases: in vivo
[1] = test system: barnyardgrass (Echinochloa crus-galli); experiment: Test A pre-/postemergence plant response
How it was run: (§1)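 Injury was scored visually after roughly ten days against untreated controls, 0 = no effect, 100 = complete control. Test chemicals in a surfactant-containing non-phytotoxic solvent were sprayed either onto soil preemergence or onto one- to two-leaf, 2–10 cm plants postemergence.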

[2] = test system: pigweed (Amaranthus retroflexus); experiment: Test A pre-/postemergence plant response
How it was run: as §1

[3] = test system: morningglory (Ipomoea coccinea); experiment: Test B pre-/postemergence plant response
How it was run: (§2)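 Plants treated either at seeding (loam/sand soil) or postemergence at 2 to 18 cm height, using a surfactant-containing non-phytotoxic solvent formulation. Evaluation was visual after 13 to 15 days, 0 to 100 scale relative to controls.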

[4] = test system: yellow nutsedge (Cyperus esculentus); experiment: Test B pre-/postemergence plant response
How it was run: as §2

[5] = test system: goosegrass (Eleusine indica); experiment: Test B pre-/postemergence plant response
How it was run: as §2

[6] = test system: blackgrass (Alopecurus myosuroides); experiment: Test B pre-/postemergence plant response
How it was run: as §2

[7] = test system: woolly cupgrass (Eriochloa villosa); experiment: Test B pre-/postemergence plant response
How it was run: as §2

[8] = test system: Surinam grass (Brachiaria decumbens); experiment: Test B pre-/postemergence plant response
How it was run: as §2

[9] = test system: downy bromegrass (Bromus tectorum); experiment: Test B pre-/postemergence plant response
How it was run: as §2

[10] = test system: large crabgrass (Digitaria sanguinalis); experiment: Test B pre-/postemergence plant response
How it was run: as §2

[11] = test system: Italian ryegrass (Lolium multiflorum); experiment: Test B pre-/postemergence plant response
How it was run: as §2

[12] = test system: velvetleaf (Abutilon theophrasti); experiment: Test B pre-/postemergence plant response
How it was run: as §2

[13] = test system: wheat (Triticum aestivum); experiment: Test B pre-/postemergence plant response
How it was run: as §2

[14] = Postemergence, 125 g ai/ha, visual injury, 0 to 100 scale (0 no effect, 100 complete control), approx. ten days
[15] = Postemergence, 500 g ai/ha, 0 to 100 scale, 0 = no effect, 100 = complete control, approx. ten days
[16] = Preemergence, 125 g ai/ha, 0 to 100 scale, 0 = no effect, 100 = complete control
[17] = Preemergence, 500 g ai/ha, visual injury, 0 to 100 scale (0 no effect, 100 complete control), approx. ten days
[18] = 31 g ai/ha, postemergence, scale 0 to 100, 0 is no effect, 100 is complete control
[19] = 250 g ai/ha, Preemergence, 0 to 100 scale
[20] = Postemergence, 62 g ai/ha, scale 0 (no effect) to 100 (complete control), 13 to 15 days
[21] = Postemergence, 125 g ai/ha, visual rating after 13 to 15 days, scale 0 (no effect) to 100 (complete control)
[22] = Preemergence, 31 g ai/ha, scale 0 to 100 (0 no effect, 100 complete control)
[23] = Preemergence, 62 g ai/ha, scale 0 to 100, 0 no effect, 100 complete control
[24] = Preemergence, 125 g ai/ha, 0 to 100 scale
[25] = Postemergence, 250 g ai/ha, scale 0 to 100

## CCn1c(-c2ccccc2)ncc(C(=O)C2=C(O)CCCC2=O)c1=O [Compound 49]
[1]; [14]
  Barnyardgrass plant response rating: 60
[1]; [15]
  Plant response rating, Barnyardgrass: 90
[1]; [16]
  Plant response rating, Barnyardgrass: 20
[1]; [17]
  Plant response rating, Barnyardgrass: 60
[2]; [14]
  Pigweed plant response rating: 100
[2]; [15]
  Plant response rating, Pigweed: 100
[2]; [16]
  Plant response rating, Pigweed: 80
[2]; [17]
  Plant response rating, Pigweed: 90
[3]; [18]
  Plant response rating, Morningglory: 65
[3]; [19]
  Plant response rating, Morningglory: 85
[3]; [20]
  Plant response rating, Morningglory: 80
[3]; [21]
  Plant response rating, Morningglory: 80
[3]; [22]
  Plant response rating, Morningglory: 45
[3]; [23]
  Plant response rating, Morningglory: 80
[3]; [24]
  Morningglory plant response rating: 80
[4]; [18]
  Plant response rating, Nutsedge, Yellow: 65
[4]; [19]
  Plant response rating, Nutsedge, Yellow: 90
[4]; [20]
  Plant response rating, Nutsedge, Yellow: 65
[4]; [21]
  Plant response rating, Nutsedge, Yellow: 70
[4]; [22]
  Plant response rating, Nutsedge, Yellow: 60
[4]; [24]
  Nutsedge, Yellow plant response rating: 85
[5]; [18]
  Plant response rating, Goosegrass: 65
[5]; [19]
  Plant response rating, Goosegrass: 100
[5]; [20]
  Plant response rating, Goosegrass: 70
[5]; [21]
  Plant response rating, Goosegrass: 70
[5]; [25]
  Goosegrass plant response rating: 70
[5]; [22]
  Plant response rating, Goosegrass: 20
[5]; [24]
  Goosegrass plant response rating: 98
[6]; [18]
  Plant response rating, Blackgrass: 0
[6]; [19]
  Plant response rating, Blackgrass: 0
[6]; [20]
  Plant response rating, Blackgrass: 0
[6]; [21]
  Plant response rating, Blackgrass: 0
[6]; [25]
  Blackgrass plant response rating: 30
[6]; [22]
  Plant response rating, Blackgrass: 0
[6]; [23]
  Plant response rating, Blackgrass: 0
[6]; [24]
  Blackgrass plant response rating: 0
[7]; [18]
  Plant response rating, Cupgrass, Woolly: 50
[7]; [19]
  Plant response rating, Cupgrass, Woolly: 20
[7]; [20]
  Plant response rating, Cupgrass, Woolly: 50
[7]; [21]
  Plant response rating, Cupgrass, Woolly: 55
[7]; [25]
  Cupgrass, Woolly plant response rating: 55
[7]; [22]
  Plant response rating, Cupgrass, Woolly: 0
[7]; [23]
  Plant response rating, Cupgrass, Woolly: 0
[7]; [24]
  Cupgrass, Woolly plant response rating: 0
[8]; [18]
  Plant response rating, Surinam Grass: 15
[8]; [19]
  Plant response rating, Surinam Grass: 85
[8]; [20]
  Plant response rating, Surinam Grass: 30
[8]; [21]
  Plant response rating, Surinam Grass: 55
[8]; [22]
  Plant response rating, Surinam Grass: 0
[8]; [24]
  Surinam Grass plant response rating: 75
[9]; [18]
  Plant response rating, Bromegrass, Downy: 0
[9]; [20]
  Plant response rating, Bromegrass, Downy: 0
[9]; [21]
  Plant response rating, Bromegrass, Downy: 0
[9]; [25]
  Bromegrass, Downy plant response rating: 5
[9]; [22]
  Plant response rating, Bromegrass, Downy: 0
[9]; [23]
  Plant response rating, Bromegrass, Downy: 0
[9]; [24]
  Bromegrass, Downy plant response rating: 0
[10]; [18]
  Plant response rating, Crabgrass, Large: 75
[10]; [19]
  Plant response rating, Crabgrass, Large: 100
[10]; [20]
  Plant response rating, Crabgrass, Large: 75
[10]; [21]
  Plant response rating, Crabgrass, Large: 80
[10]; [25]
  Crabgrass, Large plant response rating: 85
[10]; [22]
  Plant response rating, Crabgrass, Large: 75
[10]; [23]
  Plant response rating, Crabgrass, Large: 95
[10]; [24]
  Crabgrass, Large plant response rating: 98
[11]; [18]
  Plant response rating, Ryegrass, Italian: 0
[11]; [19]
  Plant response rating, Ryegrass, Italian: 5
[11]; [20]
  Plant response rating, Ryegrass, Italian: 0
[11]; [21]
  Plant response rating, Ryegrass, Italian: 0
[11]; [22]
  Plant response rating, Ryegrass, Italian: 0
[11]; [24]
  Ryegrass, Italian plant response rating: 0
[12]; [18]
  Plant response rating, Velvetleaf: 90
[12]; [19]
  Plant response rating, Velvetleaf: 100
[12]; [20]
  Plant response rating, Velvetleaf: 95
[12]; [21]
  Plant response rating, Velvetleaf: 98
[12]; [22]
  Plant response rating, Velvetleaf: 95
[12]; [24]
  Velvetleaf plant response rating: 100
[13]; [18]
  Plant response rating, Wheat: 0
[13]; [19]
  Plant response rating, Wheat: 0
[13]; [20]
  Plant response rating, Wheat: 5
[13]; [21]
  Plant response rating, Wheat: 15
[13]; [22]
  Plant response rating, Wheat: 0
[13]; [24]
  Wheat plant response rating: 0
